# According to patent publication US12685781B2, “Anti-HER3 antibody-drug conjugate” (DAIICHI SANKYO COMPANY, LIMITED, priority 2014, dated 2026):
# Assays:
# [1] = Stability of released drug derivative; type: physicochemical; conditions: self-degradation to release HO—CH2—C(═O)—(NH-DX)
# Excerpt: Meanwhile, in case of NH2—CH2—O—CH2—C(═O)—(NH-DX), it was confirmed that, as the aminal structure in the molecule is unstable, it again undergoes a self-degradation to release the following HO—CH2—C(═O)—(NH-DX). Those compounds can be also preferably used as a production intermediate of the antibody-drug conjugate of the present invention.
# topoisomerase I = target: T1, topoisomerase I (Homo sapiens, UniProt P11387); conditions: cited from earlier work
# T1 sequence (P11387 1-765): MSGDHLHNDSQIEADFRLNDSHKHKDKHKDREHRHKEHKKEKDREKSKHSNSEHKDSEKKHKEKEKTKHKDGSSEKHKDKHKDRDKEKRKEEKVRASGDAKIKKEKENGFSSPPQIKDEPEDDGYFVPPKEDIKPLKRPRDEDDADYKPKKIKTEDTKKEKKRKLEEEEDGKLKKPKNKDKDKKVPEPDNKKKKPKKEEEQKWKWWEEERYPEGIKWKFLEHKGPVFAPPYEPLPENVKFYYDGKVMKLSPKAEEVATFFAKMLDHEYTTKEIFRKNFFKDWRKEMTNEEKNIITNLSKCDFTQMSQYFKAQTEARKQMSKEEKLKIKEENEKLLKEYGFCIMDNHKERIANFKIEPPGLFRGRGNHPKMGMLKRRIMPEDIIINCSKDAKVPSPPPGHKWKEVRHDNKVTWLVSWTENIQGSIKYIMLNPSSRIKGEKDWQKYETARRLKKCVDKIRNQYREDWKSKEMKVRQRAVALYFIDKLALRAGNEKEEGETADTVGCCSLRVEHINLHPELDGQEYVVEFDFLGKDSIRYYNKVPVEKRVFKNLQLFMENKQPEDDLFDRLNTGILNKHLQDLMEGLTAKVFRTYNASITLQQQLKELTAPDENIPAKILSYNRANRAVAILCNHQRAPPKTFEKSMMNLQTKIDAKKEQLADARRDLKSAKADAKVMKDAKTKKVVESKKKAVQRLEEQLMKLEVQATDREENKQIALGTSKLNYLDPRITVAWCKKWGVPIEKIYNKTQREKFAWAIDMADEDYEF
# various cancer cells = conditions: cited from earlier work
# human tumor = human tumor subcutaneously transplanted; cited from earlier work
Compound,stability of the aminal structure in the molecule [1],inhibitory activity on topoisomerase I compared to SN-38 and topotecan (topoisomerase I),cytocidal activity in vitro compared to SN-38 and topotecan (various cancer cells),antitumor effect (human tumor)
CC[C@@]1(O)C(=O)OCc2c1cc1n(c2=O)Cc2c-1nc1cc(F)c(C)c3c1c2[C@@H](NC(=O)COCN)CC3 [NH2—CH2—O—CH2—C(═O)—(NH-DX)],unstable,,,
"CC[C@@]1(O)C(=O)OCc2c1cc1n(c2=O)Cc2c-1nc1cc(F)c(C)c3c1c2[C@@H](N)CC3 [exatecan, (1S,9S)-1-amino-9-ethyl-5-fluoro-2,3-dihydro-9-hydroxy-4-methyl-1H,12H-benzo[de]pyrano[3′,4′:6,7]indolizino[1,2-b]quinolin-10,13(9H,15H)-dione]",,higher inhibitory activity,higher cytocidal activity,potent antitumor effect
